# Reference: patent US20020103136A1, “Conjugates useful in the treatment of prostate cancer” (priority 1998, published 2002)
# Where two headings read alike, the source gives them in different places. Square brackets hold non-standard residues; d marks the D form. HCAP = (1S,2R)-(+)-2-hydroxy-3-cyclohexylisopropylamine linker; dAc‑VIN = 4-des-acetylvinblastine; Chg = N[C@H](C(=O)O)C1CCCCC1; Abu = CC[C@H](N)C(=O)O; VIN = not defined here; GABA = NCCCC(=O)O
# Key:
# [1] = system: LNCap prostate tumor cells; assay: In vitro cytotoxicity, Alamar Blue assay, LNCaP cell kill in 72 hrs; type: cell-based; conditions: read-out: LNCaP Cell Kill in 72 HRS EC5O
# Protocol: (§1) The cytotoxicities of the vinca alkaloid derivatives, prepared as described in Example 1, and the cleaveable oligopeptide-vinca drug conjugates, prepared as described in Examples 2 and 2A, against a line of cells which is known to be killed by unmodified vinca drug was assessed with an Alamar Blue assay. Specifically, cell cultures of LNCap prostate tumor cells, Colo320DM cells (also designated C320), T24 bladder carcinoma cells or T47D breast carcinoma cells in 96 well plates was diluted with medium containing various concentrations of a given conjugate (final plate well volume of 200 μl). The cells were incubated for 3 days at 37° C., 20 μl of Alamar Blue is added to the assay well. The cells were further incubated and the assay plates were read on a EL-310 ELISA reader at the dual wavelengths of 570 and 600 nm at 4 and 7 hours after addition of Alamar Blue. Relative percentage viability at the various concentration of conjugate tested was then calculated versus control (no cytotoxic agent or conjugate) cultures. Unless otherwise indicated, the TFA salt of the cytotoxic agent and the acetate salt of the conjugate were tested.
# [2] = system: Colo320DM cells (also designated C320); assay: In vitro cytotoxicity, Alamar Blue assay, Colo320DM cells; type: cell-based; conditions: read-out: Cell Kill in 72 HRS EC5O, Colo320DM
# Protocol: as §1
# [3] = target: T1, enzymatically active free PSA (Homo sapiens, UniProt P07288); assay: Recognition/cleavage of oligopeptide-vinca drug conjugates by free PSA (HPLC); type: biochemical; conditions: conjugate:PSA molar ratio 100 to 1; pH 7.4; acetate salt unless otherwise indicated; n > 1 value is an average
# T1 construct: 50% cleavage of the noted oligopeptide-cytotoxic agent conjugates with enzymatically active free PSA; purchased York
# Protocol: The conjugates prepared as described in Example 3 were individually dissolved in PSA digestion buffer (50 mM tris(hydroxymethyl)-aminomethane pH7.4, 140 mM NaCl) and the solution added to PSA at a molar ration of 100 to 1. Alternatively, the PSA digestion buffer utilized is 50 mM tris(hydroxymethyl)-aminomethane pH7.4, 140 mM NaCl. The reaction is quenched after various reaction times by the addition of trifluoroacetic acid (TFA) to a final 1% (volume/volume). Alternatively the reaction is quenched with 10 mM ZnCl2. The quenched reaction was analyzed by HPLC on a reversed-phase C18 column using an aqueous 0.1% TFA/acetonitrile gradient. […] Unless otherwise indicated, the acetate salt of the conjugate was tested.
# [4] = Table 5, 3 days, acetate salt of conjugate unless otherwise indicated
# [5] = Table 5, value in parentheses, acetate salt unless otherwise indicated
# [6] = Table 3, 3 days, TFA salt of cytotoxic agent unless otherwise indicated
# [7] = Table 3, value in parentheses, TFA salt unless otherwise indicated
# T1 sequence (P07288 25-261): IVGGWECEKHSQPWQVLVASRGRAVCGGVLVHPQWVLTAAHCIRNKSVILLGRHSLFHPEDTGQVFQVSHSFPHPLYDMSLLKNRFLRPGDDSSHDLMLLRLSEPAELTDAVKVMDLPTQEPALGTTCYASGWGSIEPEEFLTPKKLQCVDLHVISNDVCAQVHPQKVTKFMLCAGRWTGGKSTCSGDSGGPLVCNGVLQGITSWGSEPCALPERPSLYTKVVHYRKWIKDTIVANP
compound,measurement,setting,value
Ac-AbuSSChgQ-SP-(HCAP)-(dAc)-VIN (XSSXQSP; non-natural residues; cyclised or stapled),EC50,[1]; [4],2000 nM
same,EC50,[2]; [5],15700 nM
same,Time to 50% Substrate Cleavage by York PSA,[3],18 min
Ac-SChgQSS(HCAP)-dAc-VIN (Ac-S[Chg]QSS-{HCAP-dAc‑VIN}),EC50,[1]; [4],1400 nM
same,EC50,[2]; [5],1400 nM
same,Time to 50% Substrate Cleavage by York PSA,[3],12 min
Ac-SChgQSS-Sar-(HCAP)-dAc-VIN (XXQSSX; not fully specified; N-methyl; non-natural residues; cyclised or stapled),Time to 50% Substrate Cleavage by York PSA,[3],13 min
CC[C@]1(O)C[C@@H]2CN(CCc3c([nH]c4ccccc34)[C@@](C(=O)OC)(c3cc4c(cc3OC)N(C)[C@H]3[C@@](O)(C(=O)NCC(C)O)[C@H](O)[C@]5(CC)C=CCN6CC[C@]43[C@@H]65)C2)C1 (stereo partly drawn) [2-hydroxylpropylamino-(dAc)-VIN],EC50,[1]; [6],1200 nM
same,EC50,[2]; [7],2900 nM
Ac-AbuSChgQ-SP-(HCAP)-(dAc)-VIN,EC50,[1]; [4],4100 nM
same,EC50,[2]; [5],15700 nM
same,Time to 50% Substrate Cleavage by York PSA,[3],17 (n = 2) Min
4-des-Acetylvinblastine-23-(N-hydroxyacetyl-Abu-Ser-Ser-Chg-Gln-Ser-Pro-HCAP) amide (XSSXQSP; non-natural residues; cyclised or stapled),EC50,[1]; [4],2000 nM
same,EC50,[2]; [5],12600 nM
same,Time to 50% Substrate Cleavage by York PSA,[3],11 min
Ac-4-trans-L-HypSSChgQS-cyclopropylalaninol-(dAc)-VIN,EC50,[1]; [4],1500 nM
same,EC50,[2]; [5],7500 nM
same,Time to 50% Substrate Cleavage by York PSA,[3],45 min
Ac-4-trans-L-HypSSChgQS-cyclohexylalaninol-(dAc)-VIN (XSSXQSX; non-natural residues; cyclised or stapled),EC50,[1]; [4],300 nM
same,EC50,[2]; [5],2600 nM
same,Time to 50% Substrate Cleavage by York PSA,[3],10 min
4-des-Acetylvinblastine-23-(N-Acetyl-Ser-Chg-Gln-Ser-Ser-Pro-HCAP) Amide Acetate Salt (SXQSSX; non-natural residues; cyclised or stapled) [Ac-SChgQ-SSP-(HCAP)-VIN],EC50,[1]; [4],7800 nM
same,EC50,[2]; [5],15700 nM
same,Time to 50% Substrate Cleavage by York PSA,[3],8 min
CCC1(O)CC2CN(CCc3c([nH]c4ccccc34)C(C(=O)OC)(c3cc4c(cc3OC)N(C)C3C(O)(C(=O)NC(CO)Cc5c[nH]c6ccccc56)C(O)C5(CC)C=CCN6CCC43C65)C2)C1 (stereo not drawn) [tryptophanol-(dAc)-VIN],EC50,[1]; [6],600 nM
same,EC50,[2]; [7],2900 nM
CCC1(O)CC2CN(CCc3c([nH]c4ccccc34)C(C(=O)OC)(c3cc4c(cc3OC)N(C)C3C(O)(C(=O)N5CCC(O)CC5)C(O)C5(CC)C=CCN6CCC43C65)C2)C1 (stereo not drawn) [4-hydroxylpiperidine-(dAc)-VIN],EC50,[1]; [6],200 nM
same,EC50,[2]; [7],800 nM
CC[C@]1(O)C[C@@H]2CN(CCc3c([nH]c4ccccc34)[C@@](C(=O)OC)(c3cc4c(cc3OC)N(C)[C@H]3[C@@](O)(C(=O)N[C@H](CO)CC(C)C)[C@H](O)[C@]5(CC)C=CCN6CC[C@]43[C@@H]65)C2)C1 [L-leucinol-(dAc)-VIN],EC50,[1]; [6],700 nM
same,EC50,[2]; [7],2000 nM
"CCC1(O)CC2CN(CCc3c([nH]c4ccccc34)C(C(=O)OC)(c3cc4c(cc3OC)N(C)C3C(O)(C(=O)NC(C)C(O)c5ccccc5)C(O)C5(CC)C=CCN6CCC43C65)C2)C1 (single isomer, unassigned; isomer b) [norephedrine-(dAc)-VIN, isomer B]",EC50,[1]; [6],200 nM
same,EC50,[2]; [7],400 nM
Ac-SChgQSS-gammaAbu-(HCAP)-dAc-VIN (Ac-S[Chg]QSS[GABA]-{HCAP-dAc‑VIN}; not fully specified),EC50,[1]; [4],2300 nM
same,EC50,[2]; [5],4300 nM
same,Time to 50% Substrate Cleavage by York PSA,[3],12 min
Ac-4-trans-L-Hyp-SSChgQ-SS-(HCAP)-(dAc)-VIN (XSSXQSS; non-natural residues; cyclised or stapled),EC50,[1]; [4],2000 nM
same,EC50,[2]; [5],5000 nM
same,Time to 50% Substrate Cleavage by York PSA,[3],17 min
CCOC(=O)[C@H](CC1CC1)NC(=O)[C@@]1(O)[C@H](O)[C@]2(CC)C=CCN3CC[C@@]4(c5cc([C@@]6(C(=O)OC)C[C@H]7CN(CCc8c6[nH]c6ccccc86)C[C@](O)(CC)C7)c(OC)cc5N(C)[C@@H]14)[C@@H]32 [L-cyclopropyl-alainine-OEt-(dAc)-VIN],EC50,[1]; [6],1400 nM
same,EC50,[2]; [7],1000 nM
"CC[C@]1(O)C[C@@H]2CN(CCc3c([nH]c4ccccc34)[C@@](C(=O)OC)(c3cc4c(cc3OC)N(C)[C@H]3[C@@](O)(C(=O)NC(C)C(O)C5CCCCC5)[C@H](O)[C@]5(CC)C=CCN6CC[C@]43[C@@H]65)C2)C1 (single isomer, unassigned; isomer a) [(3-cyclohexyl-3-hydroxyl-2-propylaminol)-(dAc)-VIN isomer A]",EC50,[1]; [6],300 nM
same,EC50,[2]; [7],500 nM
Ac-SChgQSS(PIP)-(HCAP)-dAc-VIN (XXQSSX; non-natural residues; cyclised or stapled),Time to 50% Substrate Cleavage by York PSA,[3],22 min
Ac-SChgQS-Abu-(HCAP)-VIN (Ac-S[Chg]QS[Abu]-{HCAP-VIN}; reading uncertain),EC50,[1]; [4],800 nM
same,EC50,[2]; [5],2000 nM
same,Time to 50% Substrate Cleavage by York PSA,[3],60 min
CC[C@]1(O)C[C@@H]2CN(CCc3c([nH]c4ccccc34)[C@@](C(=O)OC)(c3cc4c(cc3OC)N(C)[C@H]3[C@@](O)(C(=O)NCC5(O)CCCCC5)[C@H](O)[C@]5(CC)C=CCN6CC[C@]43[C@@H]65)C2)C1 [1-hydroxylcyclohexylmethyamino-(dAc)-VIN],EC50,[1]; [6],500 nM
same,EC50,[2]; [7],15800 nM
"CCC1(O)CC2CN(CCc3c([nH]c4ccccc34)C(C(=O)OC)(c3cc4c(cc3OC)N(C)C3C(O)(C(=O)NC(C)C(O)c5ccccc5)C(O)C5(CC)C=CCN6CCC43C65)C2)C1 (single isomer, unassigned; isomer a) [norephedrine-(dAc)-VIN, isomer A]",EC50,[1]; [6],3000 nM
same,EC50,[2]; [7],3000 nM
CCC(CO)NC(=O)[C@@]1(O)[C@H](O)[C@]2(CC)C=CCN3CC[C@@]4(c5cc([C@@]6(C(=O)OC)C[C@H]7CN(CCc8c6[nH]c6ccccc86)C[C@](O)(CC)C7)c(OC)cc5N(C)[C@@H]14)[C@@H]32 (stereo partly drawn) [2-Aminobutanol-(dAc)-VIN],EC50,[1]; [6],2900 nM
same,EC50,[2]; [7],7100 nM
CC[C@]1(O)C[C@@H]2CN(CCc3c([nH]c4ccccc34)[C@@](C(=O)OC)(c3cc4c(cc3OC)N(C)[C@H]3[C@@](O)(C(=O)N[C@H](CO)C(C)C)[C@H](O)[C@]5(CC)C=CCN6CC[C@]43[C@@H]65)C2)C1 [L-Valinol-(dAc)-VIN],EC50,[1]; [6],400 nM
same,EC50,[2]; [7],800 nM
"CC[C@]1(O)C[C@@H]2CN(CCc3c([nH]c4ccccc34)[C@@](C(=O)OC)(c3cc4c(cc3OC)N(C)[C@H]3[C@@](O)(C(=O)NC(c5ccccc5)C(O)c5ccccc5)[C@H](O)[C@]5(CC)C=CCN6CC[C@]43[C@@H]65)C2)C1 (stereo partly drawn) [1,2-diPhenylethanolamino-(dAc)-VIN]",EC50,[1]; [6],2200 nM
same,EC50,[2]; [7],8900 nM
CCC1(O)CC2CN(CCc3c([nH]c4ccccc34)C(C(=O)OC)(c3cc4c(cc3OC)N(C)C3C(O)(C(=O)NC(C)C(O)c5cccc(OC)c5)C(O)C5(CC)C=CCN6CCC43C65)C2)C1 (stereo not drawn) [3-methoxy-norephedrine-(dAc)-VIN],EC50,[1]; [6],1800 nM
same,EC50,[2]; [7],5100 nM
CC[C@H](C)[C@@H](CO)NC(=O)[C@@]1(O)[C@H](O)[C@]2(CC)C=CCN3CC[C@@]4(c5cc([C@@]6(C(=O)OC)C[C@H]7CN(CCc8c6[nH]c6ccccc86)C[C@](O)(CC)C7)c(OC)cc5N(C)[C@@H]14)[C@@H]32 [L-isoleucinol-(dAc)-VIN],EC50,[1]; [6],900 nM
same,EC50,[2]; [7],1700 nM
